Laboratory results as given in PubChem BioAssay (NCI).
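Five concentrations, 48 hours, 96-well plates. TGI marks complete inhibition of growth.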

What was measured:
Assay in all cases: growth of human tumour cells (NCI), 48 h
786-0 renal = test system: 786-0 renal
A498 renal = test system: A498 renal
A549 NSCLC = test system: A549 NSCLC
ACHN renal = test system: ACHN renal
CAKI-1 renal = test system: CAKI-1 renal
CCRF-CEM leukemia = test system: CCRF-CEM leukemia
COLO 205 colon = test system: COLO 205 colon
DLD-1 colon = test system: DLD-1 colon
DMS 114 small cell lung = test system: DMS 114 small cell lung
DMS 273 small cell lung = test system: DMS 273 small cell lung
EKVX NSCLC = test system: EKVX NSCLC
HCC-2998 colon = test system: HCC-2998 colon
HCT-116 colon = test system: HCT-116 colon
HCT-15 colon = test system: HCT-15 colon
HL-60(TB) leukemia = test system: HL-60(TB) leukemia
HOP-18 NSCLC = test system: HOP-18 NSCLC
HOP-62 NSCLC = test system: HOP-62 NSCLC
HOP-92 NSCLC = test system: HOP-92 NSCLC
HT29 colon = test system: HT29 colon
IGROV1 ovarian = test system: IGROV1 ovarian
K-562 leukemia = test system: K-562 leukemia
KM12 colon = test system: KM12 colon
KM20L2 colon = test system: KM20L2 colon
LOX IMVI melanoma = test system: LOX IMVI melanoma
LXFL 529 NSCLC = test system: LXFL 529 NSCLC
M14 melanoma = test system: M14 melanoma
M19-MEL melanoma = test system: M19-MEL melanoma
MALME-3M melanoma = test system: MALME-3M melanoma
MOLT-4 leukemia = test system: MOLT-4 leukemia
NCI-H226 lung = test system: NCI-H226 lung
NCI-H23 lung = test system: NCI-H23 lung
NCI-H460 lung = test system: NCI-H460 lung
NCI-H522 lung = test system: NCI-H522 lung
OVCAR-3 ovarian = test system: OVCAR-3 ovarian
OVCAR-4 ovarian = test system: OVCAR-4 ovarian
OVCAR-5 ovarian = test system: OVCAR-5 ovarian
OVCAR-8 ovarian = test system: OVCAR-8 ovarian
RXF 393 renal = test system: RXF 393 renal
SF-268 CNS = test system: SF-268 CNS
SF-295 CNS = test system: SF-295 CNS
SF-539 CNS = test system: SF-539 CNS
SK-MEL-2 melanoma = test system: SK-MEL-2 melanoma
SK-MEL-28 melanoma = test system: SK-MEL-28 melanoma
SK-MEL-5 melanoma = test system: SK-MEL-5 melanoma
SK-OV-3 ovarian = test system: SK-OV-3 ovarian
SN12C renal = test system: SN12C renal
SNB-19 CNS = test system: SNB-19 CNS
SNB-75 CNS = test system: SNB-75 CNS
SNB-78 CNS = test system: SNB-78 CNS
SR leukemia = test system: SR leukemia
SW-620 colon = test system: SW-620 colon
TK-10 renal = test system: TK-10 renal
U251 CNS = test system: U251 CNS
UACC-257 melanoma = test system: UACC-257 melanoma
UACC-62 melanoma = test system: UACC-62 melanoma
UO-31 renal = test system: UO-31 renal
XF 498 CNS = test system: XF 498 CNS
RPMI-8226 leukemia = test system: RPMI-8226 leukemia

## CC(=O)OC(OC(C)=O)c1ncccc1C(=O)OC(C)C
786-0 renal
  TGI: > 100 µM
A498 renal
  TGI: > 100 µM
A549 NSCLC
  TGI: > 100 µM
ACHN renal
  TGI: > 100 µM
CAKI-1 renal
  TGI: > 100 µM
CCRF-CEM leukemia
  TGI: 49.1 µM
COLO 205 colon
  TGI: > 100 µM
DLD-1 colon
  TGI: > 100 µM
DMS 114 small cell lung
  TGI: > 100 µM
DMS 273 small cell lung
  TGI: > 100 µM
EKVX NSCLC
  TGI: > 100 µM
HCC-2998 colon
  TGI: > 100 µM
HCT-116 colon
  TGI: > 100 µM
HCT-15 colon
  TGI: > 100 µM
HL-60(TB) leukemia
  TGI: 28.9 µM
HOP-18 NSCLC
  TGI: > 100 µM
HOP-62 NSCLC
  TGI: > 100 µM
HOP-92 NSCLC
  TGI: > 100 µM
HT29 colon
  TGI: > 100 µM
IGROV1 ovarian
  TGI: > 100 µM
K-562 leukemia
  TGI: > 100 µM
KM12 colon
  TGI: > 100 µM
KM20L2 colon
  TGI: > 100 µM
LOX IMVI melanoma
  TGI: > 100 µM
LXFL 529 NSCLC
  TGI: > 100 µM
M14 melanoma
  TGI: > 100 µM
M19-MEL melanoma
  TGI: > 100 µM
MALME-3M melanoma
  TGI: > 100 µM
MOLT-4 leukemia
  TGI: > 100 µM
NCI-H226 lung
  TGI: > 100 µM
NCI-H23 lung
  TGI: > 100 µM
NCI-H460 lung
  TGI: > 100 µM
NCI-H522 lung
  TGI: > 100 µM
OVCAR-3 ovarian
  TGI: > 100 µM
OVCAR-4 ovarian
  TGI: > 100 µM
OVCAR-5 ovarian
  TGI: > 100 µM
OVCAR-8 ovarian
  TGI: > 100 µM
RXF 393 renal
  TGI: > 100 µM
SF-268 CNS
  TGI: > 100 µM
SF-295 CNS
  TGI: > 100 µM
SF-539 CNS
  TGI: > 100 µM
SK-MEL-2 melanoma
  TGI: > 100 µM
SK-MEL-28 melanoma
  TGI: > 100 µM
SK-MEL-5 melanoma
  TGI: > 100 µM
SK-OV-3 ovarian
  TGI: > 100 µM
SN12C renal
  TGI: > 100 µM
SNB-19 CNS
  TGI: > 100 µM
SNB-75 CNS
  TGI: > 100 µM
SNB-78 CNS
  TGI: > 100 µM
SR leukemia
  TGI: > 100 µM
SW-620 colon
  TGI: > 100 µM
TK-10 renal
  TGI: > 100 µM
U251 CNS
  TGI: > 100 µM
UACC-257 melanoma
  TGI: > 100 µM
UACC-62 melanoma
  TGI: > 100 µM
UO-31 renal
  TGI: > 100 µM
XF 498 CNS
  TGI: > 100 µM

## Cc1c(Cl)ccc2c1NC(=O)C2(O)CC(=O)c1cccc2ccccc12 (stereo unspecified)
786-0 renal
  TGI: > 100 µM
A498 renal
  TGI: > 100 µM
A549 NSCLC
  TGI: > 100 µM
ACHN renal
  TGI: > 100 µM
CAKI-1 renal
  TGI: > 100 µM
CCRF-CEM leukemia
  TGI: > 100 µM
COLO 205 colon
  TGI: > 100 µM
DLD-1 colon
  TGI: > 100 µM
DMS 114 small cell lung
  TGI: 55.8 µM
DMS 273 small cell lung
  TGI: > 100 µM
EKVX NSCLC
  TGI: > 100 µM
HCC-2998 colon
  TGI: > 100 µM
HCT-116 colon
  TGI: > 100 µM
HCT-15 colon
  TGI: > 100 µM
HL-60(TB) leukemia
  TGI: 42.3 µM
HOP-18 NSCLC
  TGI: > 100 µM
HOP-62 NSCLC
  TGI: > 100 µM
HT29 colon
  TGI: > 100 µM
IGROV1 ovarian
  TGI: > 100 µM
K-562 leukemia
  TGI: > 100 µM
KM12 colon
  TGI: > 100 µM
KM20L2 colon
  TGI: > 100 µM
LOX IMVI melanoma
  TGI: > 100 µM
LXFL 529 NSCLC
  TGI: > 100 µM
M14 melanoma
  TGI: > 100 µM
M19-MEL melanoma
  TGI: 37.6 µM
MALME-3M melanoma
  TGI: > 100 µM
MOLT-4 leukemia
  TGI: > 100 µM
NCI-H226 lung
  TGI: > 100 µM
NCI-H23 lung
  TGI: > 100 µM
NCI-H460 lung
  TGI: > 100 µM
NCI-H522 lung
  TGI: > 100 µM
OVCAR-3 ovarian
  TGI: > 100 µM
OVCAR-4 ovarian
  TGI: 71.3 µM
OVCAR-5 ovarian
  TGI: > 100 µM
OVCAR-8 ovarian
  TGI: > 100 µM
RPMI-8226 leukemia
  TGI: > 100 µM
RXF 393 renal
  TGI: > 100 µM
SF-268 CNS
  TGI: > 100 µM
SF-295 CNS
  TGI: > 100 µM
SF-539 CNS
  TGI: > 100 µM
SK-MEL-2 melanoma
  TGI: > 100 µM
SK-MEL-28 melanoma
  TGI: > 100 µM
SK-MEL-5 melanoma
  TGI: > 100 µM
SK-OV-3 ovarian
  TGI: > 100 µM
SN12C renal
  TGI: > 100 µM
SNB-19 CNS
  TGI: > 100 µM
SNB-75 CNS
  TGI: > 100 µM
SNB-78 CNS
  TGI: > 100 µM
SR leukemia
  TGI: 63.1 µM
SW-620 colon
  TGI: > 100 µM
TK-10 renal
  TGI: > 100 µM
U251 CNS
  TGI: > 100 µM
UACC-257 melanoma
  TGI: > 100 µM
UACC-62 melanoma
  TGI: > 100 µM
UO-31 renal
  TGI: > 100 µM
XF 498 CNS
  TGI: > 100 µM

## CCc1cccc(C)c1NC(=O)CCc1nnc(SC)o1
786-0 renal
  TGI: > 100 µM
A498 renal
  TGI: > 100 µM
A549 NSCLC
  TGI: > 100 µM
ACHN renal
  TGI: > 100 µM
CAKI-1 renal
  TGI: > 100 µM
CCRF-CEM leukemia
  TGI: > 100 µM
COLO 205 colon
  TGI: > 100 µM
DLD-1 colon
  TGI: > 100 µM
DMS 114 small cell lung
  TGI: > 100 µM
DMS 273 small cell lung
  TGI: > 100 µM
EKVX NSCLC
  TGI: > 100 µM
HCC-2998 colon
  TGI: > 100 µM
HCT-116 colon
  TGI: > 100 µM
HCT-15 colon
  TGI: > 100 µM
HL-60(TB) leukemia
  TGI: > 100 µM
HOP-18 NSCLC
  TGI: > 100 µM
HOP-62 NSCLC
  TGI: > 100 µM
HOP-92 NSCLC
  TGI: > 100 µM
HT29 colon
  TGI: > 100 µM
IGROV1 ovarian
  TGI: > 100 µM
K-562 leukemia
  TGI: > 100 µM
KM12 colon
  TGI: > 100 µM
KM20L2 colon
  TGI: > 100 µM
LOX IMVI melanoma
  TGI: > 100 µM
LXFL 529 NSCLC
  TGI: > 100 µM
M14 melanoma
  TGI: > 100 µM
M19-MEL melanoma
  TGI: > 100 µM
MALME-3M melanoma
  TGI: > 100 µM
MOLT-4 leukemia
  TGI: > 100 µM
NCI-H23 lung
  TGI: > 100 µM
NCI-H460 lung
  TGI: > 100 µM
NCI-H522 lung
  TGI: > 100 µM
OVCAR-3 ovarian
  TGI: > 100 µM
OVCAR-4 ovarian
  TGI: > 100 µM
OVCAR-5 ovarian
  TGI: > 100 µM
OVCAR-8 ovarian
  TGI: > 100 µM
RPMI-8226 leukemia
  TGI: > 100 µM
RXF 393 renal
  TGI: > 100 µM
SF-268 CNS
  TGI: > 100 µM
SF-295 CNS
  TGI: > 100 µM
SF-539 CNS
  TGI: > 100 µM
SK-MEL-2 melanoma
  TGI: > 100 µM
SK-MEL-28 melanoma
  TGI: > 100 µM
SK-MEL-5 melanoma
  TGI: > 100 µM
SK-OV-3 ovarian
  TGI: > 100 µM
SN12C renal
  TGI: > 100 µM
SNB-19 CNS
  TGI: > 100 µM
SNB-75 CNS
  TGI: > 100 µM
SNB-78 CNS
  TGI: > 100 µM
SR leukemia
  TGI: > 100 µM
SW-620 colon
  TGI: > 100 µM
TK-10 renal
  TGI: > 100 µM
U251 CNS
  TGI: > 100 µM
UACC-257 melanoma
  TGI: > 100 µM
UACC-62 melanoma
  TGI: > 100 µM
UO-31 renal
  TGI: > 100 µM
XF 498 CNS
  TGI: > 100 µM
